Laboratory results taken from US8802597B2, “Herbicidal pyrimidines” (E I du Pont de Nemours and Company, priority 2003, dated 2014).

Legend:
Assay in all cases: Test E flooded paddy water application
Assay type in all cases: in vivo
[1] = system: purple redstem (Ammannia coccinea); conditions: Flood, 21 days, scale 0 to 100 (0 no effect, 100 complete control)
Summary of the method: (§1)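 Weeds sown in sterilized Tama silt loam (2.6% organic matter), greenhouse 29.5/26.7° C, 16-h photoperiod; at 2.0–2.5-leaf stage pots flooded to 3 cm and compound added to paddy water. Visual rating vs untreated controls after 21 days, 0 (no effect) to 100 (complete control).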

[2] = system: smallflower umbrella sedge (Cyperus difformis); conditions: Flood, 21 days, scale 0 to 100 (0 no effect, 100 complete control)
Summary of the method: as §1

[3] = system: water seeded rice seedlings (Oryza sativa cv. ‘Japonica-M202’); conditions: Flood, 21 days, scale 0 to 100 (0 no effect, 100 complete control)
Summary of the method: as §1

[4] = system: junglerice (Echinochloa colona); conditions: Flood, 21 days, scale 0 to 100 (0 no effect, 100 complete control)
Summary of the method: as §1

[5] = system: bearded (brdd.) sprangletop (Leptochloa fusca ssp. fascicularis); conditions: Flood, 21 days, scale 0 to 100 (0 no effect, 100 complete control)
Summary of the method: as §1

[6] = system: ducksalad (Heteranthera limosa); conditions: Flood, 21 days, scale 0 to 100 (0 no effect, 100 complete control); for Plant response rating, Ducksalad: 16 g ai/ha
Summary of the method: as §1

[7] = system: barnyardgrass (Echinochloa crus-galli); conditions: Flood, 21 days, scale 0 to 100 (0 no effect, 100 complete control); for Plant response rating, Barnyardgrass: 16 g ai/ha
Summary of the method: as §1

[8] = system: transplanted rice seedlings (Oryza sativa cv. ‘Japonica-M202’); conditions: Flood, 21 days, scale 0 to 100 (0 no effect, 100 complete control)
Summary of the method: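 Greenhouse pots of Tama silt loam with weeds and rice at 2.0–2.5-leaf stage, flooded to 3 cm; compounds applied directly into paddy water, depth maintained. Visual rating versus untreated controls after 21 days, 0 (no effect) to 100 (complete control); 29.5/26.7 °C, 16-h photoperiod.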

[9] = system: rice flatsedge (Cyperus iria); conditions: Flood, 21 days, scale 0 to 100 (0 no effect, 100 complete control)
Summary of the method: as §1

[10] = system: late watergrass (Echinochloa oryzicola); conditions: Flood, 21 days, scale 0 to 100 (0 no effect, 100 complete control)
Summary of the method: as §1

[11] = system: early watergrass (Echinochloa oryzoides); conditions: Flood, 21 days, scale 0 to 100 (0 no effect, 100 complete control)
Summary of the method: as §1

COC(=O)c1nc(-c2ccc(Br)cc2)nc(N)c1Br [Compound 129]
Redstem plant response rating ([1]; 64 g ai/ha): 75
Redstem plant response rating ([1]; 125 g ai/ha): 80
Redstem plant response rating ([1]; 250 g ai/ha): 95
Plant response rating, Redstem ([1]; 16 g ai/ha): 30
Plant response rating, Redstem ([1]; 32 g ai/ha): 60
Sedge, Umbrella plant response rating ([2]; 64 g ai/ha): 80
Sedge, Umbrella plant response rating ([2]; 125 g ai/ha): 100
Sedge, Umbrella plant response rating ([2]; 250 g ai/ha): 100
Plant response rating, Sedge, Umbrella ([2]; 16 g ai/ha): 0
Plant response rating, Sedge, Umbrella ([2]; 32 g ai/ha): 60
Rice, Water Seeded plant response rating ([3]; 64 g ai/ha): 0
Rice, Water Seeded plant response rating ([3]; 125 g ai/ha): 0
Rice, Water Seeded plant response rating ([3]; 250 g ai/ha): 0
Plant response rating, Rice, Water Seeded ([3]; 16 g ai/ha): 0
Plant response rating, Rice, Water Seeded ([3]; 32 g ai/ha): 0
Junglerice plant response rating ([4]; 64 g ai/ha): 0
Junglerice plant response rating ([4]; 125 g ai/ha): 0
Junglerice plant response rating ([4]; 250 g ai/ha): 0
Plant response rating, Junglerice ([4]; 16 g ai/ha): 0
Plant response rating, Junglerice ([4]; 32 g ai/ha): 0
Sprangletop, Brdd. plant response rating ([5]; 64 g ai/ha): 0
Sprangletop, Brdd. plant response rating ([5]; 125 g ai/ha): 0
Sprangletop, Brdd. plant response rating ([5]; 250 g ai/ha): 70
Plant response rating, Sprangletop, Brdd. ([5]; 16 g ai/ha): 0
Plant response rating, Sprangletop, Brdd. ([5]; 32 g ai/ha): 0
Ducksalad plant response rating ([6]; 32 g ai/ha): 100
Ducksalad plant response rating ([6]; 64 g ai/ha): 100
Ducksalad plant response rating ([6]; 125 g ai/ha): 100
Ducksalad plant response rating ([6]; 250 g ai/ha): 100
Plant response rating, Ducksalad [6]: 100
Barnyardgrass plant response rating ([7]; 32 g ai/ha): 0
Barnyardgrass plant response rating ([7]; 64 g ai/ha): 0
Barnyardgrass plant response rating ([7]; 125 g ai/ha): 0
Barnyardgrass plant response rating ([7]; 250 g ai/ha): 0
Plant response rating, Barnyardgrass [7]: 0
Rice, Transplanted plant response rating ([8]; 64 g ai/ha): 0
Rice, Transplanted plant response rating ([8]; 125 g ai/ha): 0
Rice, Transplanted plant response rating ([8]; 250 g ai/ha): 0
Plant response rating, Rice, Transplanted ([8]; 16 g ai/ha): 0
Plant response rating, Rice, Transplanted ([8]; 32 g ai/ha): 0
Flatsedge, Rice plant response rating ([9]; 64 g ai/ha): 100
Flatsedge, Rice plant response rating ([9]; 125 g ai/ha): 100
Flatsedge, Rice plant response rating ([9]; 250 g ai/ha): 100
Plant response rating, Flatsedge, Rice ([9]; 16 g ai/ha): 100
Plant response rating, Flatsedge, Rice ([9]; 32 g ai/ha): 100
Watergrass, Late plant response rating ([10]; 64 g ai/ha): 0
Watergrass, Late plant response rating ([10]; 125 g ai/ha): 0
Watergrass, Late plant response rating ([10]; 250 g ai/ha): 0
Plant response rating, Watergrass, Late ([10]; 16 g ai/ha): 0
Plant response rating, Watergrass, Late ([10]; 32 g ai/ha): 0
Watergrass, Early plant response rating ([11]; 64 g ai/ha): 0
Watergrass, Early plant response rating ([11]; 125 g ai/ha): 0
Watergrass, Early plant response rating ([11]; 250 g ai/ha): 0
Plant response rating, Watergrass, Early ([11]; 16 g ai/ha): 0
Plant response rating, Watergrass, Early ([11]; 32 g ai/ha): 0

Nc1nc(-c2ccc(Br)cc2)nc(C(=O)O)c1Cl [Compound 95, 6-amino-2-(4-bromophenyl)-5-chloro-4-pyrimidinecarboxylic acid]
Redstem plant response rating ([1]; 64 g ai/ha): 30
Redstem plant response rating ([1]; 125 g ai/ha): 70
Redstem plant response rating ([1]; 250 g ai/ha): 80
Plant response rating, Redstem ([1]; 16 g ai/ha): 30
Sedge, Umbrella plant response rating ([2]; 32 g ai/ha): 95
Sedge, Umbrella plant response rating ([2]; 64 g ai/ha): 95
Sedge, Umbrella plant response rating ([2]; 125 g ai/ha): 95
Sedge, Umbrella plant response rating ([2]; 250 g ai/ha): 95
Plant response rating, Sedge, Umbrella ([2]; 16 g ai/ha): 0
Rice, Water Seeded plant response rating ([3]; 32 g ai/ha): 0
Rice, Water Seeded plant response rating ([3]; 64 g ai/ha): 0
Rice, Water Seeded plant response rating ([3]; 125 g ai/ha): 0
Rice, Water Seeded plant response rating ([3]; 250 g ai/ha): 15
Plant response rating, Rice, Water Seeded ([3]; 16 g ai/ha): 0
Junglerice plant response rating ([4]; 32 g ai/ha): 0
Junglerice plant response rating ([4]; 64 g ai/ha): 0
Junglerice plant response rating ([4]; 125 g ai/ha): 0
Junglerice plant response rating ([4]; 250 g ai/ha): 0
Plant response rating, Junglerice ([4]; 16 g ai/ha): 0
Sprangletop, Brdd. plant response rating ([5]; 32 g ai/ha): 0
Sprangletop, Brdd. plant response rating ([5]; 64 g ai/ha): 0
Sprangletop, Brdd. plant response rating ([5]; 125 g ai/ha): 0
Sprangletop, Brdd. plant response rating ([5]; 250 g ai/ha): 0
Plant response rating, Sprangletop, Brdd. ([5]; 16 g ai/ha): 0
Ducksalad plant response rating ([6]; 32 g ai/ha): 100
Ducksalad plant response rating ([6]; 64 g ai/ha): 100
Ducksalad plant response rating ([6]; 125 g ai/ha): 100
Ducksalad plant response rating ([6]; 250 g ai/ha): 100
Plant response rating, Ducksalad [6]: 100
Barnyardgrass plant response rating ([7]; 32 g ai/ha): 0
Barnyardgrass plant response rating ([7]; 64 g ai/ha): 0
Barnyardgrass plant response rating ([7]; 125 g ai/ha): 0
Barnyardgrass plant response rating ([7]; 250 g ai/ha): 0
Plant response rating, Barnyardgrass [7]: 0
Rice, Transplanted plant response rating ([8]; 32 g ai/ha): 0
Rice, Transplanted plant response rating ([8]; 64 g ai/ha): 0
Rice, Transplanted plant response rating ([8]; 125 g ai/ha): 0
Rice, Transplanted plant response rating ([8]; 250 g ai/ha): 15
Plant response rating, Rice, Transplanted ([8]; 16 g ai/ha): 0
Flatsedge, Rice plant response rating ([9]; 32 g ai/ha): 0
Flatsedge, Rice plant response rating ([9]; 64 g ai/ha): 0
Flatsedge, Rice plant response rating ([9]; 125 g ai/ha): 0
Flatsedge, Rice plant response rating ([9]; 250 g ai/ha): 0
Plant response rating, Flatsedge, Rice ([9]; 16 g ai/ha): 0
Watergrass, Late plant response rating ([10]; 32 g ai/ha): 0
Watergrass, Late plant response rating ([10]; 64 g ai/ha): 0
Watergrass, Late plant response rating ([10]; 125 g ai/ha): 0
Watergrass, Late plant response rating ([10]; 250 g ai/ha): 0
Plant response rating, Watergrass, Late ([10]; 16 g ai/ha): 0
Watergrass, Early plant response rating ([11]; 32 g ai/ha): 0
Watergrass, Early plant response rating ([11]; 64 g ai/ha): 0
Watergrass, Early plant response rating ([11]; 125 g ai/ha): 0
Watergrass, Early plant response rating ([11]; 250 g ai/ha): 0
Plant response rating, Watergrass, Early ([11]; 16 g ai/ha): 0

COC(=O)c1nc(-c2ccc(I)cc2)nc(N)c1Br [Compound 128]
Redstem plant response rating ([1]; 32 g ai/ha): 75
Redstem plant response rating ([1]; 64 g ai/ha): 80
Redstem plant response rating ([1]; 125 g ai/ha): 90
Redstem plant response rating ([1]; 250 g ai/ha): 90
Plant response rating, Redstem ([1]; 16 g ai/ha): 0
Sedge, Umbrella plant response rating ([2]; 32 g ai/ha): 60
Sedge, Umbrella plant response rating ([2]; 64 g ai/ha): 70
Sedge, Umbrella plant response rating ([2]; 125 g ai/ha): 100
Sedge, Umbrella plant response rating ([2]; 250 g ai/ha): 100
Plant response rating, Sedge, Umbrella ([2]; 16 g ai/ha): 0
Rice, Water Seeded plant response rating ([3]; 32 g ai/ha): 0
Rice, Water Seeded plant response rating ([3]; 64 g ai/ha): 0
Rice, Water Seeded plant response rating ([3]; 125 g ai/ha): 0
Rice, Water Seeded plant response rating ([3]; 250 g ai/ha): 0
Plant response rating, Rice, Water Seeded ([3]; 16 g ai/ha): 0
Junglerice plant response rating ([4]; 32 g ai/ha): 0
Junglerice plant response rating ([4]; 64 g ai/ha): 0
Junglerice plant response rating ([4]; 125 g ai/ha): 0
Junglerice plant response rating ([4]; 250 g ai/ha): 10
Plant response rating, Junglerice ([4]; 16 g ai/ha): 0
Sprangletop, Brdd. plant response rating ([5]; 32 g ai/ha): 0
Sprangletop, Brdd. plant response rating ([5]; 64 g ai/ha): 0
Sprangletop, Brdd. plant response rating ([5]; 125 g ai/ha): 0
Sprangletop, Brdd. plant response rating ([5]; 250 g ai/ha): 80
Plant response rating, Sprangletop, Brdd. ([5]; 16 g ai/ha): 0
Ducksalad plant response rating ([6]; 32 g ai/ha): 100
Ducksalad plant response rating ([6]; 64 g ai/ha): 100
Ducksalad plant response rating ([6]; 125 g ai/ha): 100
Ducksalad plant response rating ([6]; 250 g ai/ha): 100
Plant response rating, Ducksalad [6]: 95
Barnyardgrass plant response rating ([7]; 32 g ai/ha): 0
Barnyardgrass plant response rating ([7]; 64 g ai/ha): 0
Barnyardgrass plant response rating ([7]; 125 g ai/ha): 0
Barnyardgrass plant response rating ([7]; 250 g ai/ha): 0
Plant response rating, Barnyardgrass [7]: 0
Rice, Transplanted plant response rating ([8]; 32 g ai/ha): 0
Rice, Transplanted plant response rating ([8]; 64 g ai/ha): 0
Rice, Transplanted plant response rating ([8]; 125 g ai/ha): 0
Rice, Transplanted plant response rating ([8]; 250 g ai/ha): 0
Plant response rating, Rice, Transplanted ([8]; 16 g ai/ha): 0
Flatsedge, Rice plant response rating ([9]; 32 g ai/ha): 0
Flatsedge, Rice plant response rating ([9]; 64 g ai/ha): 0
Flatsedge, Rice plant response rating ([9]; 125 g ai/ha): 60
Flatsedge, Rice plant response rating ([9]; 250 g ai/ha): 80
Plant response rating, Flatsedge, Rice ([9]; 16 g ai/ha): 0
Watergrass, Late plant response rating ([10]; 32 g ai/ha): 0
Watergrass, Late plant response rating ([10]; 64 g ai/ha): 0
Watergrass, Late plant response rating ([10]; 125 g ai/ha): 0
Watergrass, Late plant response rating ([10]; 250 g ai/ha): 0
Plant response rating, Watergrass, Late ([10]; 16 g ai/ha): 0
Watergrass, Early plant response rating ([11]; 32 g ai/ha): 0
Watergrass, Early plant response rating ([11]; 64 g ai/ha): 0
Watergrass, Early plant response rating ([11]; 125 g ai/ha): 0
Watergrass, Early plant response rating ([11]; 250 g ai/ha): 0
Plant response rating, Watergrass, Early ([11]; 16 g ai/ha): 0
